Measured values: patent US20260008784A1 (VASTHERA CO., LTD., priority 2022, published 2026)

Assays:
[1] = in vitro
Protocol: Cytotoxicity tests were performed against vascular endothelial cells, vascular smooth muscle cells and hepatocytes. After treatment with ascending concentrations of each compound, the concentration of test compound corresponding to 50% cell viability (CC50) was measured.

[2] = test system: human aortic endothelial cell (HAEC); experiment: VEGF-induced proliferation assay, HAEC (PrxII siRNA); type: cell-based; details: for Degree of HAEC proliferation: VEGF-A 25 ng/mL, percent of untreated control; for EC50: Homo sapiens, Endothelial cell, effective concentration increasing cell proliferation by 50%, VEGF-stimulated
[3] = test system: Tyr 1175 phosphorylation of VEGF receptor-2 (VEGFR2) in HAEC; experiment: Immunoblot of VEGF-mediated signaling in PrxII knock-down HAEC; type: cell-based, human; details: for Effect on phosphorylation of Tyr 1175 on VEGFR2: HAECs depleted of PrxII expression, FIG. 5
[4] = test system: human pulmonary artery endothelial cell (PAEC); experiment: VEGF-induced proliferation assay, PAEC (PrxII siRNA); type: cell-based; details: for Degree of PAEC proliferation: VEGF-A 25 ng/mL, percent of untreated control; for EC50: Homo sapiens, Endothelial cell, effective concentration increasing cell proliferation by 50%, VEGF-stimulated
Protocol: HAECs and PAECs were transfected with a PrxII-specific siRNA using RNAi MAX transfection reagent according to manufacturer's protocol. After 24 hours, transfected cells (3,000 cells/well) were seeded in a 96-well culture plate. At 12 h after seeding, cells were serum-starved for additional 18 h in EBM basal medium containing 0.5% FBS. Test compounds were serially diluted with the same basal medium containing 0.5% FBS, added to the cells ([…]), and incubated for 2 h. After treatment, cells were placed in fresh EBM medium containing 0.5% FBS and VEGF-A (25 ng/mL) for growth factor stimulation and further cultured for 24 h.
The degree of cell proliferation was measured using the Cell Titer-GLO kit ([…]). Data are the percent of luminescence intensity averaged from three replicate wells versus that of untreated control group.
In human aortic endothelial cell (HAEC) and human pulmonary artery endothelial cell (PAEC) in which PrxII was knocked out by transfecting the PrxII siRNA, the ability of test compounds to augment the VEGF-induced proliferation of vascular endothelial cells was evaluated. In Table 7, the degree of proliferation in the compound-treated groups is expressed as percent of the degree of proliferation in untreated control group. The effective concentrations of test compounds increasing cell proliferation by 50% (EC50) is also listed.

[5] = test system: yeast thioredoxin (Trx)/yeast Trx reductase (TR); experiment: Peroxidase activity assay (H2O2 reduction, NADPH oxidation); type: biochemical; details: 50 μM test compound, 3 μM yeast Trx, 1.5 μM yeast TR, 250 μM NADPH, 1.2 mM H2O2, 30° C.; NADPH oxidized per minute
Procedure, shortened: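 Buffer: 50 mM HEPES pH 7.0, 1 mM EDTA, 250 μM NADPH, 3 μM yeast Trx, 1.5 μM yeast TR, 50 μM test compound; reaction started with 1.2 mM H2O2. A340 decrease followed at 30° C for 12 min. Initial rate is NADPH oxidized per minute, taken from the linear slope.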

CN1C(=O)C2CSSC1(C)C(=O)N2Cc1ccc2ccccc2n1 (stereo not shown) [Compound 5, 1,8-dimethyl-6-(quinolin-2-ylmethyl)-2,3-dithia-6,8-diazabicyclo[3.2.2]nonane-7,9-dione]
CC50 [1]: > 500000 nM | Degree of HAEC proliferation ([2]; 2.5 nM): 112.2% | Degree of HAEC proliferation ([2]; 5 nM): 129.7% | Degree of HAEC proliferation ([2]; 10 nM): 165.6% | Degree of HAEC proliferation ([2]; 25 nM): 191.6% | Degree of HAEC proliferation ([2]; 50 nM): 172.7% | Degree of HAEC proliferation ([2]; 100 nM): 180.1% | EC50 [2]: 5.31 nM | Effect on phosphorylation of Tyr 1175 on VEGFR2 [3]: strongly abolish the phosphorylation | Degree of PAEC proliferation ([4]; 2.5 nM): 106.1% | Degree of PAEC proliferation ([4]; 5 nM): 129.7% | Degree of PAEC proliferation ([4]; 10 nM): 152.3% | Degree of PAEC proliferation ([4]; 25 nM): 165.6% | Degree of PAEC proliferation ([4]; 50 nM): 167.7% | Degree of PAEC proliferation ([4]; 100 nM): 147.4% | EC50 [4]: 5.03 nM | Peroxidase activity for H2O2 reduction [5]: 4.80 nmol/min

O=C1C2CSSC3(COCCN13)C(=O)N2Cc1ccccc1 (stereo not shown) [Compound 8, 12-benzyltetrahydro-5H,10H-4,10a-(epiminomethano)[1,4]oxazino[3,4-c][1,2,4]dithia zepine-5,11-dione]
CC50 [1]: 312000 nM | Degree of HAEC proliferation ([2]; 2.5 nM): 107.3% | Degree of HAEC proliferation ([2]; 5 nM): 147.3% | Degree of HAEC proliferation ([2]; 10 nM): 186.3% | Degree of HAEC proliferation ([2]; 25 nM): 204.8% | Degree of HAEC proliferation ([2]; 50 nM): 157.0% | Degree of HAEC proliferation ([2]; 100 nM): 161.6% | EC50 [2]: 5.04 nM | Degree of PAEC proliferation ([4]; 2.5 nM): 108.5% | Degree of PAEC proliferation ([4]; 5 nM): 124.9% | Degree of PAEC proliferation ([4]; 10 nM): 143.4% | Degree of PAEC proliferation ([4]; 25 nM): 164.8% | Degree of PAEC proliferation ([4]; 50 nM): 158.1% | Degree of PAEC proliferation ([4]; 100 nM): 144.0% | EC50 [4]: 5.12 nM | Peroxidase activity for H2O2 reduction [5]: 4.91 nmol/min

CN1C(=O)C2(C)SSCC1C(=O)N2C (stereo not shown) [Compound 1, 1,6,8-trimethyl-2,3-dithia-6,8-diazabicyclo[3.2.2]nonane-7,9-dione]
CC50 [1]: 230000 nM | Degree of HAEC proliferation ([2]; 2.5 nM): 113.8% | Degree of HAEC proliferation ([2]; 5 nM): 143.7% | Degree of HAEC proliferation ([2]; 10 nM): 162.9% | Degree of HAEC proliferation ([2]; 25 nM): 187.8% | Degree of HAEC proliferation ([2]; 50 nM): 164.7% | Degree of HAEC proliferation ([2]; 100 nM): 170.2% | EC50 [2]: 4.93 nM | Effect on phosphorylation of Tyr 1175 on VEGFR2 [3]: strongly abolish the phosphorylation | Concentrations at which phosphorylation of Tyr 1175 on VEGFR2 is significantly reduced ([3]; HAECs, PrxII knock-down, FIG. 4): above 2.5 nM | Degree of PAEC proliferation ([4]; 2.5 nM): 104.7% | Degree of PAEC proliferation ([4]; 5 nM): 120.0% | Degree of PAEC proliferation ([4]; 10 nM): 143.8% | Degree of PAEC proliferation ([4]; 25 nM): 164.3% | Degree of PAEC proliferation ([4]; 50 nM): 158.8% | Degree of PAEC proliferation ([4]; 100 nM): 145.5% | EC50 [4]: 9.54 nM | Peroxidase activity for H2O2 reduction [5]: 4.92 nmol/min

CCN1C(=O)C2(C)SSCC1C(=O)N2CC (stereo not shown) [Compound 20, 6,8-diethyl-1-methyl-2,3-dithia-6,8-diazabicyclo[3.2.2]nonane-7,9-dione]
Degree of HAEC proliferation ([2]; 2.5 nM): 116.4% | Degree of HAEC proliferation ([2]; 5 nM): 120.3% | Degree of HAEC proliferation ([2]; 10 nM): 136.3% | Degree of HAEC proliferation ([2]; 25 nM): 155.9% | Degree of HAEC proliferation ([2]; 50 nM): 169.5% | Degree of HAEC proliferation ([2]; 100 nM): 187.6% | EC50 [2]: 10.2 nM | Effect on phosphorylation of Tyr 1175 on VEGFR2 [3]: strongly abolish the phosphorylation | Degree of PAEC proliferation ([4]; 2.5 nM): 109.2% | Degree of PAEC proliferation ([4]; 5 nM): 124.3% | Degree of PAEC proliferation ([4]; 10 nM): 133.5% | Degree of PAEC proliferation ([4]; 25 nM): 166.5% | Degree of PAEC proliferation ([4]; 50 nM): 180.9% | Degree of PAEC proliferation ([4]; 100 nM): 180.4% | EC50 [4]: 10.3 nM | Peroxidase activity for H2O2 reduction [5]: 4.78 nmol/min
